Key:
[1] = tested on: tyrosinase (derived from mushroom, SIGMA); test: Tyrosinase inhibitory activity using proline, pyrocatechol as substrate; format: biochemical; settings: pyrocatechol (catechol) as substrate, absorbance 525 nm
[2] = tested on: tyrosinase (derived from mushroom, SIGMA); test: Tyrosinase inhibitory activity using proline, phenol as substrate; format: biochemical; settings: for tyrosinase inhibitory activity: phenol as substrate, absorbance 525 nm
Method: The tyrosinase inhibitory activity of an undecylenic acid sugar ester was determined using phenol as a substrate, by a modification of the method using pyrocatechol.

[3] = tested on: tyrosinase (derived from mushroom, SIGMA); test: Tyrosinase activation promoting effect, phenol as substrate in the presence of proline; format: biochemical; settings: FIG. 10
Method: Ascorbic acid and ascorbic acid derivatives were used as test substances for measuring tyrosinase activation promoting effects, using phenol as a substrate in the presence of proline.
Phenol is hydroxylated by tyrosinase, and at that time requires a hydrogen donor. The produced pyrocatechol is oxidized by tyrosinase to form an orthoquinone. The orthoquinone formed is quantitated in the presence of proline, to determine the tyrosinase activity.
Specifically, the measurement was carried out as follows. Forty microliters of 0.749 M L-proline dissolved in 0.1 M phosphate buffer at pH 7.5, 40 μl of 0.037 M phenol, and 1.41 ml of one of test substance solutions at various concentrations were stirred in a cuvette for absorbance measurement. A solution (10 μl) of 350 μg/ml of tyrosinase (derived from mushroom, SIGMA) was added, and the absorbance change was measured with stirring for 15 minutes at 525 nm, to determine the tyrosinase activity. […]

Mouse melanoma B16 cells = test: Evaluation of melanogenesis inhibitory effect using mouse melanoma cells; format: cell-based; settings: melanin production per cell, FIG. 4
Method: Mouse melanoma B16 cells (3.6×10^5) were added to a 75 cm^2 culture flask containing 15 ml of D-MEM culture medium supplemented with 10% FCS, and incubated overnight at 37° C. under 5% carbon dioxide gas to adhere the cells. The culture medium was changed to 15 ml of 10% FCS-supplemented D-MEM culture medium containing one of 0.1% DMSO solutions of arbutin or 6-O-(10-undecylenoyl) arbutin obtained in Example 1-1 at various concentrations. The incubation was continued for two more days under the same conditions. The culture medium was again changed to 15 ml of the 0.1% DMSO solution-containing culture medium, and incubation was continued for two more days under the same conditions. After incubation, the cells were recovered, and the wet weight of the cells was measured. After the wet weight measurement, pellets of the cells were suspended in MilliQ water to a total volume of 700 μl. […] The absorbance (405 nm) was then measured. […] The melanin production per cell was indicated as absorbance at 405 nm/cell wet weight (μg). The melanogenesis inhibitory effects of arbutin undecylenate or arbutin at each concentration was determined, with the melanin production per cell without addition of arbutin or arbutin undecylenate being taken as 100%.

Compound | tyrosinase inhibitory activity [1] | tyrosinase inhibitory activity [2] | also measured
OC[C@H]1O[C@@H](Oc2ccc(O)cc2)[C@H](O)[C@@H](O)[C@@H]1O [Arbutin] | inhibit tyrosinase activity | inhibit tyrosinase activity | tyrosinase inhibitory activity, phenol substrate compared with catechol substrate ([2]; phenol vs catechol substrate, FIG. 6): higher inhibitory activity against a phenol substrate than against a catechol substrate
CCCCCCCCCCCCCCCC(=O)OCC(O)C1OC(=O)C(O)=C1O (stereo not shown) [Ascorbic acid palmitic ester, ascorbic acid-6-palmitate] |  |  | concentrations exhibiting tyrosinase activity promoting effects [3]: ≤ 10^−4 M
C=CCCCCCCCCC(=O)OC[C@H]1O[C@@H](Oc2ccc(O)cc2)[C@H](O)[C@@H](O)[C@@H]1O [arbutin undecylenate, 6-O-(10-undecylenoyl)arbutin] |  |  | melanogenesis inhibitory effect relative to arbutin (Mouse melanoma B16 cells): about 100 times
O=C1O[C@H]([C@@H](O)CO)C(O)=C1O [ascorbic acid, L-ascorbic acid] |  |  | concentrations exhibiting tyrosinase activity promoting effects [3]: ≤ 10^−4 M
Sucrose undecylenic acid ester | inhibit tyrosinase activity | inhibit tyrosinase activity | 
Trehalose oleate |  | not inhibit tyrosinase activity | 
trehalose undecylenic acid ester | inhibition of tyrosinase | tyrosinase was inhibited | 

Further lines, with some results ahead:

tyrosinase inhibitory activity [1] | Compound | tyrosinase inhibitory activity [2] | also measured
inhibit tyrosinase activity | C=CCCCCCCCCC(=O)O [Undecylenic acid] |  | 
not inhibit tyrosinase activity | Trehalose diundecylenic acid ester |  | 
